Data published in US20080051364A1, “Therapeutic Treatment of Accelerated Bone Resorption” (priority 2004, published 2008).

Legend:
[1] = test system: key signaling protein expression down-stream to A3AR activation in paw extracts; test: Western blot analysis of key signaling proteins in paw extracts from AIA rats; format: in vivo, rat
Protocol: The hind paws were dissected above the ankle joint. The bony tissue was broken into pieces broken, snap frozen in liquid nitrogen and stored at −80° C. until use. The paw tissues were added to (4 ml/g tissue) RIPA extraction buffer containing 150 mM NaCl, 50 mM Tris, 1% NP40, 0.5% Deoxycholate and 0.1% SDS. Tissues were homogenized on ice with a polytron, centrifuged and the supernatans were subjected to Western Blot analysis
Western blot analysis (WB) of paw extracts were carried out according to the following protocol. Samples were rinsed with ice-cold PBS and transferred to ice-cold lysis buffer (TNN buffer, 50 mM Tris buffer pH=7.5, 150 mM NaCl, NP 40). Cell debris was removed by centrifugation for 10 min, at 7500×g. Protein concentrations were determined using the Bio-Rad protein assay dye reagent. Equal amounts of the sample (50 μg) were separated by SDS-PAGE, using 12% polyacrylamide gels. The resolved proteins were then electroblotted onto nitrocellulose membranes (Schleicher & Schuell, Keene, N.H., USA). Membranes were blocked with 1% BSA and incubated with the desired primary antibody (dilution 1:1000) for 24 h at 4° C. Blots were then washed and incubated with a secondary antibody for 1 h at room temperature. Bands were recorded using BCIP/NBT color development kit (Promega, Madison, Wis., USA). Data presented in the different figures are representative of at least four different experiments.
The hind paws of animals from the control and IB-MECA treated groups were dissected and after protein extraction the samples were subjected for WB analysis. […] The activation of the A3AR led to a 40% decrease in the RANKL protein expression level in paw extracts derived from IB-MECA treated AIA rats. […] This Chain of events led a 50% reduction in the expression level of TNF-α upon IB-MECA treatment.

AIA rats [2] = test: Clinical disease score and paw thickness in the Adjuvant Induced Arthritis (AIA) rat model; format: in vivo
Protocol: (§1) Female Lewis rats, aged 8-10 weeks, obtained from Harlan Laboratories (Jerusalem, Israel), were injected subcutaneously (SC) at the tail base with 100 μl of suspension composed of incomplete Freund's adjuvant with 10 mg/ml heat killed Mycobacterium tuberculosis. Each group contained 10 animals and each experiment was conducted at least three times.
(§2) Drugs were orally administered by gavage, twice daily. The […] received vehicle only (DMSO in a dilution corresponding to that of the drug) while the treatment groups received 10 μg/kg of IB-MECA. Treatment was initiated on day 14 after vaccination.
The animals were inspected every second day for clinical arthritis. The scoring system ranged from 0-4 of each limb: 0—no arthritis; 1—redness or swelling of one toe/finger joint; 2—redness and swelling of more than one toe/finger joints, 3—the ankle and tarsal-metatarsal joints involvement. 4—entire paw redness or swelling. The inflammatory intensity was also determined in accordance with the increase in the rat hind paw's diameter, measured by caliper (Mitotoyo, Tokyo, Japan).

[3] = Plasma half life in human studies; format: in vivo; details: data not shown
Protocol: (§3) Based on the above conversion methods, the preferred dosage range for two specific A3AR agonist, e.g. IB-MECA and Cl-IB-MECA, would be less than 4 mg, typically within the range of about 0.01 to about 2 mg (about 0.14-28 micrograms/Kg, respectively) and desirably within the range of about 0.1 to 1.5 mg (about 1.4-21 micrograms/Kg, respectively). This dose may be administered once, twice or, at times, several times a day.

Plasma half life in mice = format: in vivo
Protocol: as §3

[4] = test system: Adjuvant Induced Arthritis (AIA), collagen induced arthritis (CIA) and thropomyosine induced arthritis; details: different experimental animal models; Baharav et al. 2004; cited from earlier work
AIA rats [5] = test: Histological score of joints of AIA rats; format: in vivo, rat
Protocol: as §1, §2
The foot, knee and hip region of both vehicle and CF101 treated animals were collected and fixed in 10% buffered formalin and decalcified in hydrochloric acid (Calci-Clear Rapid) (Pational Diagnostics, Gr, USA) for 24 h. The specimens were then processed for paraffine embedding, histologic 4-μm sections were cut and stained with hematoxylin and eosin. The sections were assessed by a pathologist blinded to the treatment protocols, and each joint was scored separately. The histology score was assessed as follows: A score of 0 to 4 for the extent of inflammatory cells' infiltration to was used according to the followed: 0—Normal; 1—minimal inflammatory infiltration; 2—mild infiltration; 3—moderate infiltration; 4—marked infiltration. The pannus formation joint tissues, synovial lining cell hyperplasia. The score was graded […]: 0—normal; 1—minimal loss of cortical bone at a few sites; 2—mild loss of cortical trabecular bone; 3—moderate loss of bone at many sites; 4—marked loss of bone at many sites; 5—marked loss of bone at many sites with fragmenting and full thickness penetration of inflammatory process or pannus into the cortical bone. The mean of all the histological parameter scores were designated “Histology Score”.
At day 23 after the disease induction, the animals were scarified, and joints from two hind paws of each animal were harvested and examined histologically. The histological analysis was carried out on the basis of infiltration of inflammatory cells, synovial hyperplasia, cartilage and bone destruction. Most of the histophathological changes were found in the interophalangeal region of the foot. […] Overall, the severity of joint histopathology was correlated with the clinical severity index.

SMILES: CNC(=O)[C@H]1O[C@@H](n2cnc3c(NCc4cccc(I)c4)ncnc32)[C@H](O)[C@@H]1O [IB-MECA, N^6-(3-iodobenzyl)-adenosine-5′-N-methyluronamide]
- A3AR expression ([1]; WB (FIG. 10A)): Modulation in the A3AR itself was noted
- decrease in the RANKL protein expression level ([1]; WB (FIG. 10B)): 40%
- level of IKK ([1]; WB (FIG. 10C)): down-regulation
- level of NF-κB ([1]; WB (FIG. 10C)): reduced level
- reduction in the expression level of TNF-α ([1]; WB (FIG. 10C)): 50%
- PI3K protein expression level ([1]; WB, vs control (FIG. 10C)): reduction in the protein expression level
- PKB/AKT protein expression level ([1]; WB, vs control (FIG. 10C)): reduction in the protein expression level
- paw edema (AIA rats [2]; AIA rats, 10 μg/kg orally twice daily from day 14): significantly decreased
- inhibition in the paw thickness (AIA rats [2]; AIA rats, 10 μg/kg orally twice daily from day 14 (FIG. 1B)): 35%±1.2
- maximal clinical arthritic score (AIA rats [2]; AIA rats, 10 μg/kg orally twice daily from day 14, score 0-4 of each limb, control 8.7±0.76 (FIG. 1A)): 4.8±0.95
- paw appearance (redness and swelling) (AIA rats [2]; representative paw vs control group (FIG. 1C)): appears completely normal
- half life in plasma [3]: 8 to 10 h
- half life (Plasma half life in mice): 1.5 h
- clinical and pathological manifestations of arthritis [4]: efficacious in preventing the clinical and pathological manifestations of arthritis
- bone loss (AIA rats [5]; AIA rat model, summary statement): prevents bone loss
- fibrosis and hyperplasia of the synovia (AIA rats [5]; day 23 (FIGS. 3A-3B)): almost no the fibrosis and mild hyperplasia of the synovia
- pannus tissue development (AIA rats [5]; day 23 (FIGS. 4A-4B)): mild evidence for a development of pannus tissue
- cartilage texture / destruction (AIA rats [5]; day 23 (FIGS. 5A-5B)): appeared to be normal
- presence of osteoblasts (AIA rats [5]; day 23 (FIGS. 8A-8B)): low presence of osteoblasts
- new bone formation (AIA rats [5]; day 23 (FIGS. 9A-9B)): slight new bone formation
- reduction in the appearance of osteoclasts (AIA rats [5]; day 23, in comparison to the control group (FIGS. 6A-6B)): 73%
- inflammatory changes in the joints, mean total score (AIA rats [5]; day 23, score 0-4, control 3.2±0.14 (FIGS. 2A-2B)): 0.4±0.034
- histopathological changes in the knee region (AIA rats [5]; day 23 after disease induction, vs vehicle group): remained intact
